Experimental data reported in patent EP1006108A1, “3-Hydroxy-2(1H)-pyridinone or 3-hydroxy-4(1H)-pyridinone derivatives useful as reactive oxygen species (ROS) scavengers” (Cerebrus Pharmaceuticals Limited, priority 1998, dated 2000).
Where a name gives a salt, the structure may show the parent alone.

Tests used:
[1] = system: lipid peroxidation in rat brain homogenates; assay: Lipid peroxidation assay (ascorbic acid induced, MDA/TBA readout); type: biochemical; conditions: concentration inhibiting lipid peroxidation by 50%; rat cortex preparation, 500-µM L-ascorbic acid, 37 °C for 30 min
Procedure: Lipid peroxidation in rat brain homogenates is a general procedure used to measure the antioxidant capacity of molecules in a biological environment (Das N.P. and Ratty A.K., Biochem. Med. Metab. Biol. 1987, 37, 256-264).
Rat cortex was homogenised in 20 vols. of ice cold 0.32-M sucrose and centrifuged at 1,000 g for 10 min. The pellet was discarded whilst the resulting supernatant was centrifuged at 15,000 g for 20 min at 4 °C to yield p2 pellets. The pellet was re-suspended in ice-cold 50.0-mM phosphate buffer and centrifuged at 30,000 g for 20 min at 4 °C. The pellet was re-suspended in 30 vols, of 50.0-mM phosphate buffer and used immediately in the assay.
Assays contained 500-µM L-ascorbic acid to induce lipid peroxidation, plus various concentrations of test compound, with the tissue preparation in a total volume of 500 µL. This was incubated at 37 °C for 30 min. Lipid peroxidation was measured by adding to the reaction mixture, 300 µL 40 % (w/v) trichloroacetic acid, 150 µL 5.0-M HCl and 300 µL 2 % (w/v) 2-thiobarbituric acid (TBA). Samples were then heated at 90 °C in a water bath for 15 min, and centrifuged at 15,000 g for 10 min. The pink colour of the supernatant was assessed spectrophotometrically at a wavelength of 532 nm. The amount of malondialdehyde (MDA) in the samples was calculated using a standard curve prepared with malondialdehyde tetrabutylammonium salt (Das, N.P. and Ratty, A.K. Biochem. Med. Metab. Biol. 1987, 37, 256-264).
The IC50 values show the concentration of test compound required to inhibit the lipid peroxidation by 50%.

[2] = system: cerebellar granule cell (CGC) cultures; assay: Iodoacetate (IAA) induced cell death, MTT-reductase readout; type: cell-based; conditions: Cell Toxicity, 30-µM IAA for 30 min plus 10-µM MK-801, then test compound, 24 hour incubation
Procedure: After 6-8 days in culture, cerebellar granule cell (CGC) cultures in 96-well plates (250,000 cells per well) were prepared for hypoglycaemia. Iodoacetate (IAA) was made up in a balanced salt solution (BSS) (NaCI, 154.0-mM; KCl, 5.6-mM; MgCl2, 1.0-mM; CaCl2, 2.5-mM; N-[2-hydroxyethyl]piperazine-N'-[2-ethanesulfonic acid] (HEPES), 10.0-mM; D-glucose, 5.6-mM; pH 7.4) and any neuroprotective agents were made up in pre-warmed tissue culture media and allowed to equilibrate in a controlled environment (5 % CO2, 95 % air). The assay was initiated by aspiration of the maintenance media, which was replaced by either BSS (control) or 30-µM IAA in BSS, both solutions containing 10-µM of the NMDA receptor antagonist MK-801. The exposure to IAA was for 30 min only at 37 °C, after which time the BSS was aspirated and replaced with fresh, pre-equilibriated maintenance media containing various concentrations of test compound. All conditions were performed at least in duplicate in each 96 well plate. The final volume for each well was always 200 µL. Following a 24 hour incubation, visual inspection of the cells was followed by quantification of neuronal cell death by measuring 3-[4,5-dimethylthiazol-2-yl]-2,5-diphenyltetrazolium bromide (MTT)-reductase activity as described previously (Malcolm et al., J. Neurochem. 1996, 66, 2350-2360).

[3] = system: oxidation of DCFH to DCF; assay: Measurement of intracellular oxidative stress (DCFH-DA fluorescence); type: cell-based; conditions: 0.5 h, concentration blocking oxidation of DCFH to DCF by 50%, 30.0-µM IAA, 30 minutes, read from Figure 1
Procedure: IAA-stimulated fluorescence values are given as a function of concentration of the test compound.
Intracellular oxidative stress was measured using the oxidant-sensitive fluorescent dye 2',7'-dichlorodihydrofluorescein diacetate (DCFH-DA) (Molecular Probes). The non-fluorescent DCFH-DA readily crosses cell membranes whereupon it is trapped within the cytoplasm by deacetylation to the non-membrane permeable form dichlorodihydrofluorescein (DCFH). Upon oxidation, DCFH yields the highly fluorescent product dichlorofluorescein (DCF). Briefly, growth medium was aspirated from cultures and replaced with 200 µl BSS (plus 10.0-µM MK-801) or BSS (plus 10.0-µM MK-801) containing 30.0-µM IAA alone or in combination with various concentrations of antioxidants. After incubation at 37 °C for 30 minutes, cultures were aspirated once more and 10.0-µM DCFH-DA (200 µL) added to all wells. After a further 20 minute incubation at 37 °C, fluorescence was measured in a Cytofluor II fluorescent plate reader (λex=485nm; λem=530nm). Background fluorescence values from wells treated with 2 % Triton X-100 were subtracted from both basal and stimulated fluorescence values and the effects of test compounds expressed as a percent inhibition of the IAA-stimulated fluorescence increase over basal.
The EC50 value gives the effective concentration of test compound required to block the oxidation of DCFH to DCF by 50%. […]

Molecule | IC50 [1] [µM] | EC50 [2] [µM] | EC50 [3] [µM]
2-(1,4-Dihydro-3-hydroxy-2-methyl-4-oxo-1-pyridinyl)ethyl 3,4-dihydro-6-hydroxy-2,5,7,8-tetramethyl-2H-benzopyran-2-carboxylate [Example 3] | 1.5 | 1.8 | –
Cc1c(O)c(=O)ccn1CCC(=O)NCCCc1cc(C(C)(C)C)c(O)c(C(C)(C)C)c1 [Example 1, 3-(1,4-Dihydro-3-hydroxy-2-methyl-4-oxo-1-pyridinyl)-N-(3-(3,5-di-tert-butyl-4-hydroxyphenyl)propyl)propanamide] | 0.2 | 0.3 | –
Cc1c(O)c(=O)ccn1CCNCc1cc(C(C)(C)C)c(O)c(C(C)(C)C)c1 [Example 2, 1-[2-(3,5-Di-tert-butyl-4-hydroxybenzylamino)ethyl]-3-hydroxy-2-methyl-4(1H)-pyridinone dihydrochloride] | 0.2 | 3.3 | –
Cc1c(C)c2c(c(C)c1O)CCC(C)(CNC(=O)CCn1ccc(=O)c(O)c1C)O2 (stereo not drawn) [Example 5, 3-(1,4-Dihydro-3-hydroxy-2-methyl-4-oxo-1-pyridinyl)-N-(3,4-dihydro-6-hydroxy-2,5,7,8-tetramethyl-2H-benzopyran-2-yl)methylpropanamide] | 0.8 | 2.6 | –
Cc1c(C)c2c(c(C)c1O)CCC(C)(COCCn1ccc(=O)c(O)c1C)O2 (stereo not drawn) [Example 6] | 0.2 | ~3 | –
Cc1c(C)c2c(c(C)c1O)CCC(C)(CNCCCCn1ccc(=O)c(O)c1C)O2 (stereo not drawn) [Example 7, 1-[4-(3,4-Dihydro-6-hydroxy-2,5,7,8-tetramethyl-2H-benzopyran-2-yl)methylamino)butyl]-3-hydroxy-2-methyl-4(1H)-pyridinone dihydrochloride] | 0.1 | 0.6 | –
Cc1c(C)c2c(c(C)c1O)CC(CC(=O)NCCn1ccc(=O)c(O)c1C)O2 (stereo not drawn) [Example 8, N-(2-(1,4-Dihydro-3-hydroxy-2-methyl-4-oxo-1-pyridinyl)ethyl)-2,3-dihydro-5-hydroxy-4,6,7-trimethylbenzofuran-2-acetamide] | 0.5 | 3.8 | –
Cc1c(C)c2c(c(C)c1O)CC(CC(=O)OCCn1ccc(=O)c(O)c1C)O2 (stereo not drawn) [Example 9, 2-(1,4-Dihydro-3-hydroxy-2-methyl-4-oxo-1-pyridinyl)ethyl 2,3-dihydro-5-hydroxy-4,6,7-trimethylbenzofuran-2-acetate] | 0.4 | 1.6 | –
Cc1c(C)c2c(c(C)c1O)CC(CCOC(=O)CCn1ccc(=O)c(O)c1C)O2 (stereo not drawn) [Example 10, 2-(2,3-Dihydro-5-hydroxy-4,6,7-trimethylbenzofuran-2-yl)ethyl 3-(1,4-dihydro-3-hydroxy-2-methyl-4-oxo-1-pyridinyl)propanoate] | 0.2 | ~5.3 | 0.8
N-(2-(1,4-Dihydro-3-hydroxy-2-methyl-4-oxo-1-pyridinyl)ethyl)-3,4-dihydro-6-hydroxy-2,5,7,8-tetramethyl-2H-benzopyran-2-carboxamide [Example 4] | 1 | 1.8 | –
